{"source": "patent US4145444A", "about": "“Anti-inflammatory agent of benzoyl derivative” (priority 1977, dated 1979)", "tested_on": "hind paws of male rats", "experiment": "Anti-inflammatory effect: acute carragheenin edema method", "assay_type": "in vivo", "settings": "Rattus norvegicus, read-out: Anti-inf.: edema inhibition rate", "description": "The edema was induced by subcutaneous injection of 1% carragheenin suspension in saline to the hind paws of male rats weighting 150 to 180 g. Each sample was orally given at the dosage of 100 mg/kg just before the inoculation of carragheenin.", "key": {"[1]": {"settings": "100 mg/kg oral, carragheenin edema, male rats (Table 2')"}}, "note": "Like-named read-outs stand apart in the source and are kept apart here.", "data": [{"compound": "CCCCCc1ccc(C(=O)c2ccccc2Cl)cc1", "note": "[compound 133]", "values": [{"measurement": "inhibition in vivo at 100 mg/kg", "setting": "[1]", "value": 38.3, "unit": "%"}]}, {"compound": "CCCCCCCCc1ccc(C(=O)c2ccccc2Cl)cc1", "note": "[compound 134]", "values": [{"measurement": "inhibition in vivo at 100 mg/kg", "setting": "[1]", "value": 35.1, "unit": "%"}]}, {"compound": "Cc1ccc(C(=O)c2ccccc2Cl)c(C)c1", "note": "[compound 135]", "values": [{"measurement": "inhibition in vivo at 100 mg/kg", "setting": "[1]", "value": 37.2, "unit": "%"}]}, {"compound": "COc1ccc(C(=O)c2ccc(Cl)cc2)cc1", "note": "[compound 136]", "values": [{"measurement": "inhibition in vivo at 100 mg/kg", "setting": "[1]", "value": 13.2, "unit": "%"}]}, {"compound": "CCCCOc1ccc(C(=O)c2ccc(Cl)cc2)cc1", "note": "[compound 137]", "values": [{"measurement": "inhibition in vivo at 100 mg/kg", "setting": "[1]", "value": 16.7, "unit": "%"}]}, {"compound": "CCCCCCOc1ccc(C(=O)c2ccc(Cl)cc2)cc1", "note": "[compound 138]", "values": [{"measurement": "inhibition in vivo at 100 mg/kg", "setting": "[1]", "value": 12.5, "unit": "%"}]}, {"compound": "CCCc1ccc(C(=O)c2cccc(Cl)c2)cc1", "note": "[compound 139]", "values": [{"measurement": "inhibition in vivo at 100 mg/kg", "setting": "[1]", "value": 11.7, "unit": "%"}]}, {"compound": "CCCCCc1ccc(C(=O)c2cccc(Cl)c2)cc1", "note": "[compound 140]", "values": [{"measurement": "inhibition in vivo at 100 mg/kg", "setting": "[1]", "value": 14.9, "unit": "%"}]}, {"compound": "CCCCCCCCc1ccc(C(=O)c2cccc(Cl)c2)cc1", "note": "[compound 141]", "values": [{"measurement": "inhibition in vivo at 100 mg/kg", "setting": "[1]", "value": 13.8, "unit": "%"}]}, {"compound": "CCCc1ccc(C(=O)c2ccccc2Br)cc1", "note": "[compound 142]", "values": [{"measurement": "inhibition in vivo at 100 mg/kg", "setting": "[1]", "value": 38.9, "unit": "%"}]}, {"compound": "CCCCc1ccc(C(=O)c2ccccc2Br)cc1", "note": "[compound 143]", "values": [{"measurement": "inhibition in vivo at 100 mg/kg", "setting": "[1]", "value": 45.4, "unit": "%"}]}, {"compound": "CCCCCc1ccc(C(=O)c2ccccc2Br)cc1", "note": "[compound 144]", "values": [{"measurement": "inhibition in vivo at 100 mg/kg", "setting": "[1]", "value": 50, "unit": "%"}]}, {"compound": "CCCCCCCCc1ccc(C(=O)c2ccccc2Br)cc1", "note": "[compound 145]", "values": [{"measurement": "inhibition in vivo at 100 mg/kg", "setting": "[1]", "value": 60.2, "unit": "%"}]}, {"compound": "Cc1ccc(C(=O)c2ccccc2Br)c(C)c1", "note": "[compound 146]", "values": [{"measurement": "inhibition in vivo at 100 mg/kg", "setting": "[1]", "value": 23.1, "unit": "%"}]}, {"compound": "Cc1cc(C)c(C(=O)c2ccccc2Br)c(C)c1", "note": "[compound 147]", "values": [{"measurement": "inhibition in vivo at 100 mg/kg", "setting": "[1]", "value": 20.4, "unit": "%"}]}, {"compound": "CCCCCCCCc1ccc(C(=O)c2cccc(Br)c2)cc1", "note": "[compound 148]", "values": [{"measurement": "inhibition in vivo at 100 mg/kg", "setting": "[1]", "value": 36.3, "unit": "%"}]}, {"compound": "Cc1ccc(C(=O)c2cccc(Br)c2)c(C)c1", "note": "[compound 149]", "values": [{"measurement": "inhibition in vivo at 100 mg/kg", "setting": "[1]", "value": 42.2, "unit": "%"}]}, {"compound": "CCCc1ccc(C(=O)c2ccc(Br)cc2)cc1", "note": "[compound 150]", "values": [{"measurement": "inhibition in vivo at 100 mg/kg", "setting": "[1]", "value": 14, "unit": "%"}]}, {"compound": "CCCCCCCCc1ccc(C(=O)c2ccc(Br)cc2)cc1", "note": "[compound 151]", "values": [{"measurement": "inhibition in vivo at 100 mg/kg", "setting": "[1]", "value": 15.3, "unit": "%"}]}, {"compound": "Cc1ccc(C(=O)c2ccc(Br)cc2)c(C)c1", "note": "[compound 152]", "values": [{"measurement": "inhibition in vivo at 100 mg/kg", "setting": "[1]", "value": 22.6, "unit": "%"}]}, {"compound": "Cc1cc(C)c(C(=O)c2ccc(Br)cc2)c(C)c1", "note": "[compound 153]", "values": [{"measurement": "inhibition in vivo at 100 mg/kg", "setting": "[1]", "value": 27.8, "unit": "%"}]}, {"compound": "CCCc1ccc(C(=O)c2ccccc2I)cc1", "note": "[compound 154]", "values": [{"measurement": "inhibition in vivo at 100 mg/kg", "setting": "[1]", "value": 29, "unit": "%"}]}, {"compound": "CCCCc1ccc(C(=O)c2ccccc2I)cc1", "note": "[compound 155]", "values": [{"measurement": "inhibition in vivo at 100 mg/kg", "setting": "[1]", "value": 31.8, "unit": "%"}]}, {"compound": "CCCCCc1ccc(C(=O)c2ccccc2I)cc1", "note": "[compound 156]", "values": [{"measurement": "inhibition in vivo at 100 mg/kg", "setting": "[1]", "value": 43, "unit": "%"}]}, {"compound": "CCCCCCCCc1ccc(C(=O)c2ccccc2I)cc1", "note": "[compound 157]", "values": [{"measurement": "inhibition in vivo at 100 mg/kg", "setting": "[1]", "value": 37.4, "unit": "%"}]}, {"compound": "Cc1ccc(C(=O)c2ccccc2I)c(C)c1", "note": "[compound 158]", "values": [{"measurement": "inhibition in vivo at 100 mg/kg", "setting": "[1]", "value": 32.7, "unit": "%"}]}, {"compound": "Cc1cc(C)c(C(=O)c2ccccc2I)c(C)c1", "note": "[compound 159]", "values": [{"measurement": "inhibition in vivo at 100 mg/kg", "setting": "[1]", "value": 15.9, "unit": "%"}]}, {"compound": "CCCCc1ccc(C(=O)c2cccc(I)c2)cc1", "note": "[compound 160]", "values": [{"measurement": "inhibition in vivo at 100 mg/kg", "setting": "[1]", "value": 10.8, "unit": "%"}]}, {"compound": "CCCCCCCCc1ccc(C(=O)c2cccc(I)c2)cc1", "note": "[compound 161]", "values": [{"measurement": "inhibition in vivo at 100 mg/kg", "setting": "po", "value": 20.9, "unit": "%"}]}, {"compound": "Cc1ccc(C(=O)c2cccc(I)c2)c(C)c1", "note": "[compound 162]", "values": [{"measurement": "inhibition in vivo at 100 mg/kg", "setting": "[1]", "value": 13, "unit": "%"}]}, {"compound": "Cc1cc(C)c(C(=O)c2cccc(I)c2)c(C)c1", "note": "[compound 163]", "values": [{"measurement": "inhibition in vivo at 100 mg/kg", "setting": "[1]", "value": 16.4, "unit": "%"}]}, {"compound": "CCCCCCCCc1ccc(C(=O)c2ccc(I)cc2)cc1", "note": "[compound 164]", "values": [{"measurement": "inhibition in vivo at 100 mg/kg", "setting": "[1]", "value": 29, "unit": "%"}]}, {"compound": "Cc1ccc(C(=O)c2ccc(I)cc2)c(C)c1", "note": "[compound 165]", "values": [{"measurement": "inhibition in vivo at 100 mg/kg", "setting": "[1]", "value": 19.2, "unit": "%"}]}, {"compound": "Cc1cc(C)c(C(=O)c2ccc(I)cc2)c(C)c1", "note": "[compound 166]", "values": [{"measurement": "inhibition in vivo at 100 mg/kg", "setting": "[1]", "value": 21.5, "unit": "%"}]}]}
